The NIST ThermoML archive (doi:10.1021/je200707b)
± gives the expanded uncertainty stated by the source.

What was measured:
[1] = refractive index (Na D-line) (dimensionless); settings: 298.15 K; 101.33 kPa; Liquid; Standard Abbe refractometry
[2] = 101.33 kPa, Liquid; for viscosity: Falling or rolling sphere viscometry; for mass density: Vibrating tube method

Structure (SMILES) | refractive index [1] | viscosity ([2]; 293.15 K) [mPa·s] | mass density ([2]; 293.15 K) [kg/m3] | viscosity ([2]; 298.15 K) [mPa·s] | mass density ([2]; 298.15 K) [kg/m3] | viscosity ([2]; 303.15 K) [mPa·s] | mass density ([2]; 303.15 K) [kg/m3] | viscosity ([2]; 308.15 K) [mPa·s] | mass density ([2]; 308.15 K) [kg/m3] | viscosity ([2]; 313.15 K) [mPa·s] | mass density ([2]; 313.15 K) [kg/m3]
CCCCO [butan-1-ol] | 1.3973 ± 0.0011 | 2.983 ± 0.082 | 809.7 ± 0.38 | 2.617 ± 0.072 | 805.9 ± 0.38 | 2.306 ± 0.063 | 802.05 ± 0.37 | 2.04 ± 0.056 | 798.17 ± 0.37 | 1.811 ± 0.05 | 794.26 ± 0.37
CC(=O)O.CCCCN [butylammonium acetate] | 1.4426 ± 0.0011 | 771.69 ± 71 | 959.61 ± 0.42 | 546.35 ± 44 | 956.44 ± 0.42 | 397.17 ± 28 | 953.33 ± 0.42 | 294.59 ± 18 | 950.15 ± 0.42 | 222.24 ± 12 | 946.98 ± 0.42
CCO [ethanol] | 1.3594 ± 0.0011 | 1.241 ± 0.034 | 789.54 ± 0.37 | 1.128 ± 0.031 | 785.25 ± 0.37 | 1.029 ± 0.028 | 780.93 ± 0.37 | 0.92 ± 0.025 | 776.57 ± 0.37 | 0.842 ± 0.023 | 772.18 ± 0.37
CO [methanol] | 1.3265 ± 0.0011 | 0.588 ± 0.016 | 791.28 ± 0.37 | 0.557 ± 0.015 | 786.56 ± 0.37 | 0.519 ± 0.014 | 781.83 ± 0.37 | 0.49 ± 0.013 | 777.07 ± 0.37 | 0.462 ± 0.013 | 772.29 ± 0.37
CCCO [propan-1-ol] | 1.3834 ± 0.0011 | 2.229 ± 0.061 | 803.55 ± 0.37 | 1.975 ± 0.054 | 799.55 ± 0.37 | 1.757 ± 0.048 | 795.52 ± 0.37 | 1.568 ± 0.043 | 791.44 ± 0.37 | 1.406 ± 0.039 | 787.34 ± 0.37
